Data from US20230277508A1, “USE OF COMPOUND AS CYP2E1 INHIBITOR” (SHANGHAI LING XI BIOTECHNOLOGY DEVELOPMENT CO., LTD., priority 2020, published 2023).

Experiments:
GL261 cells = test: Direct effect on GL261 glioma cells in vitro; assay type: cell-based, murine
Description: Experimental method: GL261 murine glioma cells and U251 human glioma cells in a logarithmic growth phase each were selected and inoculated into a 96-well plate at a concentration of 5*10^5 cells/mL, then 100 μL of a cell suspension was added to each well, and 12 h later, a medium was discarded; 200 μL of a basic medium including SMI0 at different concentrations ([…]) was added to each well, […]; and the cells were further cultivated for 2 h, and an absorbance OD value of each well was determined at 450 nm by a microplate reader. 3 replicates were set for each well, and an average was taken. The proliferation activity was calculated based on the OD value.

ID-8 cells = test: In vitro inhibition experiment on ID-8 cells; assay type: cell-based, murine; conditions: 0 μM to 320 μM, 48 h
GL261 cells / astrocytes = test: GL261 cells co-cultivated with M2 astrocytes; assay type: cell-based, mouse; conditions: SMI0 50 μmol/L vs M2 astrocyte co-cultivation group, P<0.05
Description: Experimental method: 10 1-2 d newborn C57BL/6 WT mice and 6 CYP2E1^−/− mice were taken, primary microglial cells and astrocytes were collected and inoculated into 6-well plates, and 24 h later, culture supernatants were taken and co-cultivated with glioma cells. Experimental groups: control group; M2 model group; high-concentration, medium-concentration, and low-concentration SMI0 (50 μmol/L, 12.5 μmol/L, and 3.1 μmol/L) groups; and CYP2E1 gene-knockout group. 24 h later, supernatants were discarded; and […] and IL-13 each were added at 20 ng/mL to induce the transformation of microglial cells into the M2 type in the M2 model group and the high-concentration, medium-concentration, and low-concentration SMI0 groups, and different concentrations of SMI0 (50 μmol/L, 12.5 μmol/L, and 3.1 μmol/L) were also added in the intervention groups. The proliferation of glioma cells was determined by a CCK8 method, and an apoptosis proportion was determined by an Annexin V-FITC-PI apoptosis staining kit.

CYP2E1 = biological target: T1, CYP2E1 (Mus musculus, UniProt Q05421); test: CYP2E1 activity (liver microsome) in in situ transplanted mouse glioma model; assay type: in vivo; conditions: SMI0 intervention group vs model group, P<0.001
T1 construct: from tissue; host or cells: liver microsomes of treated model mice (calcium precipitation)
T1 sequence (Q05421 whole entry): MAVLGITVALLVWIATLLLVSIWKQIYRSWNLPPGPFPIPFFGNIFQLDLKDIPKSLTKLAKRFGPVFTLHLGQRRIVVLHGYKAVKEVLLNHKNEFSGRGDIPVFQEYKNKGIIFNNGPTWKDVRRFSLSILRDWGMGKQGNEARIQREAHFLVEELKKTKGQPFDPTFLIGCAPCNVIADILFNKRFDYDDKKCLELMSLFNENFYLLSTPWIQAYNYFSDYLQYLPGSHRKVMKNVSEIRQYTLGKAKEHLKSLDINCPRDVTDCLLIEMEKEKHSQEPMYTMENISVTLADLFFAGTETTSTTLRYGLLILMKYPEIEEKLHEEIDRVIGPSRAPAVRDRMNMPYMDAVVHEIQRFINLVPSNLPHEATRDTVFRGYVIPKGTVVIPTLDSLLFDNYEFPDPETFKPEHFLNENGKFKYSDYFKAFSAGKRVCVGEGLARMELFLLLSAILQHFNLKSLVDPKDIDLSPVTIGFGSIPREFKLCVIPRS
Description: Experimental method: A calcium precipitation method was used to prepare a mouse liver microsome, and a Braford method was used to determine a protein concentration in the microsome. An incubation system was prepared with 2×PBS, a CZX solution, and the liver microsome at a final concentration of 0.5 mg/mL, and then pre-incubated at 37° C. for 5 min; NADPH was added to initiate a reaction, and a resulting mixture was incubated at 37° C. for 30 min and then placed on ice to terminate the reaction; and ethyl acetate was added to extract 6-hydroxychlorzoxazone, a resulting mixture was vortexed and centrifuged, and a resulting upper organic phase was collected and blow-dried with nitrogen. A peak area of a CZX metabolite 6-hydroxychlorzoxazone was detected by HPLC under the following conditions: methanol:water=56:44, and detection wavelength: 287 nm. A concentration A C of the metabolite 6-hydroxychlorzoxazone was calculated through substitution into a standard curve; and a reaction rate of conversion of CZX into 6-hydroxychlorzoxazone was calculated according to V(pmol/min/mg)=(ΔC*1000)/(B*T) to evaluate an enzymatic activity of CYP2E1, where B represents a protein concentration of the microsome (mg/mL) and T represents an incubation time (min). A correlation between CYP2E1 activity and tumor size in the mouse glioma model was analyzed.

[1] = test system: blood glucose level in diabetes rats; test: Diabetes rat model induced by a high-fat diet and STZ; assay type: in vivo
Description: Experimental method: A diabetes rat model was constructed by a high-fat diet+single intraperitoneal injection of STZ (40 mg/kg). A FBG level of higher than or equal to 16.7 mmol/L after two weeks of molding was a criterion for successful molding. Modeled rats were divided into various groups according to the blood glucose level. Rats in a model group were administered with NS, and rats in SMI0 low-dose and high-dose intervention groups were administered with the compound SMI0 at 30 mg/kg and 150 mg/kg every day, respectively. The FBG level in rats was determined and recorded regularly every week until the sixth week after administration. 10 rats were provided in each group.

Lewis lung cancer cells = test: Direct effect on proliferation of Lewis lung cancer cells (CCK8); assay type: cell-based; conditions: up to 100 μmol/L, 24 h
Description: Experimental method: Lewis lung cancer cells and A549 lung cancer cells in a logarithmic growth phase each were selected and inoculated into a 96-well plate at a concentration of 1*10^5 cells/mL, then 100 μL of a basic medium including SMI0 at different concentrations (0 μmol/L, 0.16 μmol/L, 0.8 μmol/L, 4 μmol/L, 20 μmol/L, and 100 μmol/L) was added to each well, and 24 h later, 10 μL of a CCK8 reagent was added to each well; and the cells were further cultivated for 2 h, and an absorbance OD value of each well was determined at 450 nm by a microplate reader. 3 replicates were set for each well, and an average was taken. The proliferation activity was calculated based on the OD value.

[2] = test system: CFA-induced rheumatoid arthritis in rats; test: CFA-induced rat rheumatoid arthritis model; assay type: in vivo, SD rat; conditions: for rat foot swelling alleviation rate: at 36 h
Description: Experimental method: An SD rat rheumatoid arthritis model was constructed with CFA (0.1 mL/rat). The SMI0 intervention group was divided into an ultra-low-dose group, a low-dose group, a medium-dose group, and a high-dose group, which were intragastrically administered with the compound SMI0 respectively at 1 mg/kg, 6 mg/kg, 30 mg/kg, and 150 mg/kg every day starting from two days before modeling; and the positive control group was intragastrically administered with celecoxib at 5 mg/kg. 10 animals were provided for each group. 1 d before administration of CFA to the rats, the above grouping and doses were adopted, and then the rats were administered once every day until the modeling was completed on day 10. Each rat was administered with CFA at a sole of a right hindfoot. A volume of each of the right hindfeet of rats was measured every day by a rat foot swelling measuring instrument (which was measured every 12 h in the first 3 days). A foot swelling rate of each rat was calculated according to a change of a right hindfoot volume of the rat relative to a hindfoot volume of the rat before the CFA administration at each time point, and a difference in foot swelling rate between groups of rats was analyzed.

**Q.** What does the source list for `CC(=O)c1scnc1C` [SMI0]?
**A.** inhibitory effect on GL261 (GL261 cells; 0 μM to 128 μM, 48 h): no significant inhibitory effect; effect on the proliferation of GL261 glioma cells (GL261 cells; up to 128 μmol/L or 200 μmol/L, CCK8): no significant inhibitory effect; inhibitory effect on ID-8 (ID-8 cells): no significant inhibitory effect; proliferation activity of GL261 cells (GL261 cells / astrocytes): significantly weakened; CYP2E1 activity (CYP2E1): significantly reduced; FBG levels ([1]; SMI0 low-dose (30 mg/kg) and high-dose (150 mg/kg) daily, weeks 5 and 6, vs model group, P<0.05): significantly reduced; glucose tolerance ([1]; glucose tolerance test, SMI0 30 and 150 mg/kg daily): significantly improved; effect on the proliferation of Lewis lung cancer cells (Lewis lung cancer cells): no significant inhibitory effect; rat foot swelling alleviation rate ([2]; SMI0 1 mg/kg ig daily): 20.8%; rat foot swelling alleviation rate ([2]; SMI0 6 mg/kg ig daily): 34.2%; rat foot swelling alleviation rate ([2]; SMI0 30 mg/kg ig daily): 44.1%; rat foot swelling alleviation rate ([2]; SMI0 150 mg/kg ig daily): 52.5%; rat foot swelling caused by CFA ([2]; SMI0 intervention group vs model group, P<0.001): significantly alleviated
